Test results published in PubChem BioAssay (NCI).
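Method: 48-hour compound exposure of cells in 96-well plates, five concentrations, linear interpolation of endpoints. TGI denotes the concentration required for complete inhibition of growth.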

What was measured:
Test in all cases: NCI-60 cell line screen, 48 h
786-0 renal = test system: 786-0 renal
EKVX NSCLC = test system: EKVX NSCLC
HCT-116 colon = test system: HCT-116 colon
HOP-62 NSCLC = test system: HOP-62 NSCLC
SF-268 CNS = test system: SF-268 CNS
SK-MEL-5 melanoma = test system: SK-MEL-5 melanoma
SW-620 colon = test system: SW-620 colon
UACC-257 melanoma = test system: UACC-257 melanoma

| SMILES | TGI (786-0 renal) [µM] | TGI (EKVX NSCLC) [µM] | TGI (HCT-116 colon) [µM] | TGI (HOP-62 NSCLC) [µM] | TGI (SF-268 CNS) [µM] | TGI (SK-MEL-5 melanoma) [µM] | TGI (SW-620 colon) [µM] | TGI (UACC-257 melanoma) [µM] |
| --- | --- | --- | --- | --- | --- | --- | --- | --- |
| C[C@@]12C[C@@H](c3ccccc3O1)N1CCCCSC1=N2 | > 100 | > 100 | > 100 | > 100 | > 100 | > 100 | > 100 | > 100 |
| COc1ccc2c(=O)c(O)c(-c3ccc(OC)c(OC)c3)oc2c1 |  | > 100 | > 100 | 36.1 | > 100 | > 100 | > 100 | > 100 |
| Clc1ccc(/C=C/c2nc3ccccc3s2)cc1Cl | 32.1 | > 100 | 63.8 | 55.8 | > 100 | > 100 |  | > 100 |
| CCOC(=O)N1CCC2(CC1)C[C@](C)(C(C)=O)C(C)O2 (stereo not given in full) | > 100 | > 100 |  | > 100 | > 100 | > 100 | > 100 | > 100 |
| CCc1ccc(CCN2CCCCC2)nc1 | > 100 | > 100 | > 100 | > 100 | > 100 | > 100 | > 100 | > 100 |
| CC(C)c1ccc(/C=C2/C=C(c3ccc4ccccc4c3)OC2=O)cc1 | > 100 | > 92.5 | > 100 | > 100 | > 100 | 29 | > 100 | 59.2 |
| COc1ccc(CNc2nc(NCc3ccc(OC)c(OC)c3)nc(NC3CCCCC3)n2)cc1 | > 100 | > 100 | > 100 |  |  | 7.41 | > 100 | > 100 |
| COC(=O)c1cc2c(n1S(=O)(=O)c1ccc(C)cc1)C(=O)C(=O)c1[nH]cc(C(=O)OCc3ccccc3)c1-2 | 1.07 | 0.665 | 0.247 | 0.385 | 1.24 | 0.064 | 0.174 | 0.112 |
| N#CC1=C(N)N(c2ccccc2)C(c2ccco2)C1(C#N)C#N (stereo not given) | 35.1 | 73.3 | > 100 | 54.3 | > 100 | 32.3 | 39.2 | 37.2 |
| Oc1cc2c3c(c1)c1cc4c(cc1c[n+]3CC2)OCO4 | > 24.4 | > 76.6 | > 40.5 | > 100 | 8.9 | > 100 | > 36.6 | > 57.4 |
| N=c1n(C(=O)N2CCCC2)c2cc(Cl)ccc2n1C1=NCCN1 | > 100 | > 100 | > 100 | > 100 | > 100 | > 100 | > 100 | > 100 |
| CC1(C)N=C(/C(Cl)=[N+](/[O-])C(=O)c2ccc(F)cc2)C(C)(C)N1O | 27.7 | 40.6 | 30.6 | 40 | 33.6 | 30.4 | 39.2 | 32.3 |
| Cc1cc(N(CCC#N)CCC#N)ccc1/C(N=Nc1ccc(Cl)cc1)=N\NC(=O)c1ccccc1 | > 100 | > 100 | > 100 | > 100 | > 100 | > 100 |  | > 100 |
| CCOC(=O)c1c2ccccc2n2c(N)c(C(N)=O)nnc12 | > 100 | > 100 | > 100 | 69.1 | 56.3 | > 100 | > 100 | > 100 |
| Cc1cn(C2CC(n3cc(Cn4cc(I)c(=O)[nH]c4=O)nn3)C(CO)O2)c(=O)[nH]c1=O (stereo not given) |  |  | > 100 | > 100 | > 100 | > 100 | > 100 | > 100 |
| COc1ccc(N2C(=O)C3c4[nH]c5ccccc5c4C4CCC(C(C)(C)C)CC4C3C2=O)c(C)c1 (stereo not given) | > 100 | > 100 | > 100 | > 100 | > 100 | > 100 | > 100 | > 100 |
| C=C1c2nc3ccccc3n2C=C(c2ccccc2)N1c1ccc([N+](=O)[O-])cc1 | 4.13 | 24.8 | 35.2 | > 52.6 | 49.1 | 40.8 | 59 | 63.4 |
| CC(=O)O[C@H]1C(=O)[C@]2(C)[C@@H](OC(=O)OCCC(O)CO)C[C@H]3OC[C@@]3(OC(C)=O)[C@H]2[C@H](OC(=O)c2ccccc2)[C@]2(O)C[C@H](OC(=O)[C@H](O)[C@@H](NC(=O)c3ccccc3)c3ccccc3)C(C)=C1C2(C)C (stereo not given in full) | 6.05 | > 100 | 5.65 | 21.6 | 34.9 | 13.1 | > 46.4 | 21.4 |
| COc1cc(/C=C2\S/C(=N/Nc3nc(-c4ccc(Br)cc4)cs3)NC2=O)cc(OC)c1OC | 26.5 | 63.8 | 17.2 | 30.3 | > 100 | 20.2 | 30.8 | 44.9 |
| O=[N+]([O-])/C(C(Cl)=C(Cl)Cl)=C(\SCc1ccccc1)N1CCCCC1 | 36.3 | > 100 | 31.3 | > 100 | 74.3 | 31.4 |  | 77.2 |
| NC(=O)C(c1ccccc1)N1OC2C(=O)N(c3ccccc3)C(=O)C2C1c1c2ccccc2c(Cl)c2ccccc12 (stereo not given) | > 100 | > 100 | > 100 | > 100 | > 100 | > 100 | > 100 |  |
| O=c1[nH]cc(N=Cc2cc(Cl)cc(Cl)c2O)c(=O)[nH]1 | 62.2 | > 100 | 43.3 | 57 | 47.4 | 42.6 |  | 83.8 |
| Cc1cn(C2CC(N(O)C(N)=O)C(CO)O2)c(=O)[nH]c1=O (stereo not given) | > 100 |  | > 100 | > 100 | > 100 | > 100 | > 100 |  |
| COC(=O)[C@H](Cc1c[nH]c2ccccc12)NP(=O)(O)OCC1C=CC(n2cc(C)c(=O)[nH]c2=O)O1 (stereo not given in full) | > 100 | > 100 | > 100 | > 100 | > 100 | > 100 | > 100 |  |
| Cc1cccc(/C=N/NC(=S)Nc2ccccc2)n1 | 9.14 | > 49.3 |  | 17.8 | > 100 | > 22.5 | > 100 | 8.1 |
